In US20250081967A1, “PESTICIDALLY ACTIVE HETEROCYCLIC DERIVATIVES WITH SULFOXIMINE CONTAINING SUBSTITUENTS” (SYNGENTA CROP PROTECTION AG, priority 2021, published 2025):

Experiments:
Format in all cases: in vivo
Myzus persicae [1] = experiment: Activity against Myzus persicae (green peach aphid), systemic activity, pea seedlings; conditions: Myzus persicae
Description: Example B5: Activity Against Myzus persicae (Green Peach Aphid) Systemic Activity
Roots of pea seedlings infested with an aphid population of mixed ages were placed directly in the aqueous test solutions prepared from 10′000 DMSO stock solutions. The samples were assessed for mortality 6 days after placing seedlings in test solutions.

Myzus persicae [2] = experiment: Activity against Myzus persicae (green peach aphid), feeding/contact activity, sunflower leaf discs; conditions: for mortality at 200 ppm: Myzus persicae, foliar, 144 h, application rate 200 ppm, feeding/contact, 6 days after infestation; for Mortality (%): Myzus persicae (feeding/contact)
Description: Example B4: Activity Against Myzus persicae (Green Peach Aphid) Feeding/Contact Activity
(§1) Sunflower leaf discs were placed on agar in a 24-well microtiter plate and sprayed with aqueous test solutions prepared from 10′000 ppm DMSO stock solutions. After drying, the leaf discs were infested with an aphid population of mixed ages. The samples were assessed for mortality 6 days after infestation.

Diabrotica balteata = experiment: Activity against Diabrotica balteata (corn root worm), maize sprouts; conditions: for percent effect (mortality or growth inhibition) at 200 ppm: 96 h, application rate 200 ppm, L2 larvae, 4 days after infestation, read-out: effect in at least one of the two categories (mortality or growth inhibition)
Description: Example B3: Activity Against Diabrotica Balteata (Corn Root Worm)
Maize sprouts placed onto an agar layer in 24-well microtiter plates were treated with aqueous test solutions prepared from 10′000 ppm DMSO stock solutions by spraying. After drying, the plates were infested with L2 larvae (6 to 10 per well). The samples were assessed for mortality and growth inhibition in comparison to untreated samples 4 days after infestation.

Plutella xylostella [3] = experiment: Activity against Plutella xylostella (diamond back moth), artificial diet, eggs; conditions: 192 h, application rate 200 ppm, 8 days after infestation, read-out: effect in at least one of the two categories (mortality or growth inhibition)
In short: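 Artificial diet in wells treated with aqueous dilutions of 10′000 ppm DMSO stocks, dried, then infested with Plutella eggs. Mortality and growth inhibition scored against untreated samples 8 days after infestation.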

[4] = tested on: Frankliniella occidentalis; experiment: Activity against Frankliniella occidentalis (western flower thrips), sunflower leaf discs; conditions: foliar, 168 h, application rate 200 ppm, mixed ages, 7 days after infestation
Description: Example B8: Activity Against Frankliniella occidentalis (Western Flower Thrips)
as §1, with “in” for “in a”, “plates” for “plate”, “[…]” for “10′000 ppm”, “drying” for “drying,”, “a Frankliniella” for “an aphid”, “7” for “6”

Chilo suppressalis = experiment: Activity against Chilo suppressalis (striped rice stemborer), artificial diet; conditions: 144 h, application rate 200 ppm, L2 larvae, 6 days after infestation
Description: Example B11: Activity Against Chilo suppressalis (Striped Rice Stemborer)
24-well microtiter plates with artificial diet were treated with aqueous test solutions prepared from 10′000 ppm DMSO stock solutions by pipetting. After drying, the plates were infested with L2 larvae (6-8 per well). The samples were assessed for mortality, anti-feeding effect, and growth inhibition in comparison to untreated samples 6 days after infestation. Control of Chilo suppressalis by a test sample is given when at least one of the categories mortality, anti-feedant effect, and growth inhibition is higher than the untreated sample.

Spodoptera littoralis = experiment: Activity against Spodoptera littoralis (Egyptian cotton leaf worm), cotton leaf discs; conditions: foliar, 72 h, application rate 200 ppm, L1 larvae, 3 days after infestation, read-out: control (mortality, anti-feeding effect or growth inhibition)
In short: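 Cotton leaf discs on agar sprayed with aqueous test solutions made from 10′000 ppm DMSO stocks, dried, then infested with five L1 larvae. Mortality, anti-feeding and growth inhibition scored versus untreated samples 3 days after infestation; control given when any category exceeds untreated.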

Bemisia tabaci = experiment: Activity against Bemisia tabaci (cotton white fly), cotton leaf discs; conditions: for mortality at 200 ppm: foliar, 144 h, application rate 200 ppm, adult white flies, 6 days after incubation
Description: Example B6: Activity Against Bemisia tabaci (Cotton White Fly)
Cotton leaf discs were placed on agar in 24-well microtiter plates and sprayed with aqueous test solutions prepared from 10′000 ppm DMSO stock solutions. After drying the leaf discs were infested with adult white flies. The samples were checked for mortality 6 days after incubation.

Euschistus heros = experiment: Activity against Euschistus heros (neotropical brown stink bug), soybean leaf; conditions: 120 h, application rate 200 ppm, N-2 nymphs, 5 days after infestation, read-out: effect in at least one of the two categories (mortality or growth inhibition)
Description: Example B7: Activity Against Euschistus heros (Neotropical Brown Stink Bug)
Soybean leaf on agar in 24-well microtiter plates were sprayed with aqueous test solutions prepared from 10′000 ppm DMSO stock solutions. After drying the leaf were infested with N-2 nymphs. The samples were assessed for mortality and growth inhibition in comparison to untreated samples 5 days after infestation.

Plutella xylostella [5] = experiment: Activity against Plutella xylostella (diamond back moth), artificial diet, L2 larvae; conditions: 120 h, application rate 200 ppm, 5 days after infestation, read-out: effect in at least one of the two categories (mortality or growth inhibition)
Description: Example B2: Activity Against Plutella xylostella (Diamond Back Moth)
24-well microtiter plates with artificial diet were treated with aqueous test solutions prepared from 10′000 ppm DMSO stock solutions by pipetting. After drying, the plates were infested with L2 larvae (10 to 15 per well). The samples were assessed for mortality and growth inhibition in comparison to untreated samples 5 days after infestation.

[6] = 144 h, test rate 24 ppm, systemic, 6 days after placing seedlings in test solutions

| SMILES | mortality at 24 ppm (Myzus persicae [1]; [6]) [%] | mortality at 200 ppm (Myzus persicae [2]) [%] | percent effect (mortality or growth inhibition) at 200 ppm (Plutella xylostella [3]) [%] | mortality at 200 ppm [4] [%] | percent control (mortality, anti-feedant effect or growth inhibition) at 200 ppm (Chilo suppressalis) [%] | mortality at 200 ppm (Bemisia tabaci) [%] | further results |
| --- | --- | --- | --- | --- | --- | --- | --- |
| CCS(=N)(=O)c1cc(OC(C)(C)C#N)cnc1-c1cn2cnc(C(F)(F)F)cc2n1 (single isomer, unassigned) [Compound P11-A, 2-[[5-(ethylsulfonimidoyl)-6-[7-(trifluoromethyl)imidazo[1,2-c]pyrimidin-2-yl]-3-pyridyl]oxy]-2-methyl-propanenitrile] | ≥ 80 | ≥ 80 | ≥ 80 | ≥ 80 | – | – | mortality at 24 ppm (Myzus persicae [1]; Myzus persicae (systemic), concentration 24 ppm): 100%; percent effect (mortality or growth inhibition) at 200 ppm (Diabrotica balteata): ≥ 80% |
| CCS(=N)(=O)c1cc(C2(C#N)CC2)cnc1-c1nc2cc(C(F)(F)F)n(OC)c(=O)c2n1C (single isomer, unassigned) [Compound P8-B, 1-[5-(ethylsulfonimidoyl)-6-[5-methoxy-3-methyl-4-oxo-6-(trifluoromethyl)imidazo[4,5-c]pyridin-2-yl]-3-pyridyl]cyclopropanecarbonitrile] | – | – | ≥ 80 | – | ≥ 80 | – | – |
| CCS(=N)(=O)c1cc(OC(C)(C)C#N)cnc1-c1nc2cc(C(F)(F)F)ncc2n1C (single isomer, unassigned) [Compound P13-B, 2-[[5-(ethylsulfonimidoyl)-6-[3-methyl-6-(trifluoromethyl)imidazo[4,5-c]pyridin-2-yl]-3-pyridyl]oxy]-2-methyl-propanenitrile] | – | – | – | – | ≥ 80 | – | percent control (mortality, anti-feedant effect or growth inhibition) at 200 ppm (Spodoptera littoralis): ≥ 80%; Mortality (%) (Myzus persicae [2]; concentration 12.5 ppm): 100%; Mortality (%) (Diabrotica balteata; concentration 50 ppm): 100% |
| CCS(=N)(=O)c1cc(C2(C#N)CC2)cnc1-c1nc2cc(C(F)(F)F)ncc2n1C (racemic) [Compound P10, 1-[5-(ethylsulfonimidoyl)-6-[3-methyl-6-(trifluoromethyl)imidazo[4,5-c]pyridin-2-yl]-3-pyridyl]cyclopropanecarbonitrile] | ≥ 80 | ≥ 80 | ≥ 80 | – | ≥ 80 | ≥ 80 | – |
| CCS(=N)(=O)c1cc(C2(C#N)CC2)cnc1-c1nc2cc(C(F)(F)F)nnc2n1C (single isomer, unassigned) [Compound P2-A, 1-[5-(ethylsulfonimidoyl)-6-[7-methyl-3-(trifluoromethyl)imidazo[4,5-c]pyridazin-6-yl]-3-pyridyl]cyclopropanecarbonitrile] | ≥ 80 | ≥ 80 | – | – | ≥ 80 | ≥ 80 | Mortality (%) (Myzus persicae [2]; concentration 3.125 ppm): 100% |
| CCn1c(C(F)(F)F)cc2nc(-c3ncc(OC(C)(C)C#N)cc3S(=N)(=O)CC)n(C)c2c1=O (single isomer, unassigned) [Compound P19-B, 2-[[6-[5-ethyl-3-methyl-4-oxo-6-(trifluoromethyl)imidazo[4,5-c]pyridin-2-yl]-5-(ethylsulfonimidoyl)-3-pyridyl]oxy]-2-methyl-propanenitrile] | – | – | – | ≥ 80 | – | – | – |
| CCS(=N)(=O)c1cc(OC(C)(C)C#N)cnc1-c1nc2cc(C(F)(F)F)n(C3CC3)c(=O)c2n1C (racemic) [Compound P1, 2-[[6-[5-cyclopropyl-3-methyl-4-oxo-6-(trifluoromethyl)imidazo[4,5-c]pyridin-2-yl]-5-(ethylsulfonimidoyl)-3-pyridyl]oxy]-2-methyl-propanenitrile] | ≥ 80 | ≥ 80 | – | ≥ 80 | – | ≥ 80 | percent effect (mortality or growth inhibition) at 200 ppm (Euschistus heros): ≥ 80%; percent control (mortality, anti-feedant effect or growth inhibition) at 200 ppm (Spodoptera littoralis): ≥ 80%; percent effect (mortality or growth inhibition) at 200 ppm (Plutella xylostella [5]): ≥ 80%; percent effect (mortality or growth inhibition) at 200 ppm (Diabrotica balteata): ≥ 80% |
| CCS(=N)(=O)c1cc(C2(C#N)CC2)ccc1-c1nc2cc(C(F)(F)F)cnc2n1C (single isomer, unassigned) [Compound P6-A, 1-[3-(ethylsulfonimidoyl)-4-[3-methyl-6-(trifluoromethyl)imidazo[4,5-b]pyridin-2-yl]phenyl]cyclopropanecarbonitrile] | ≥ 80 | ≥ 80 | – | – | ≥ 80 | ≥ 80 | mortality at 6 ppm (Myzus persicae [1]; Myzus persicae (systemic), concentration 6 ppm): 80%; percent effect (mortality or growth inhibition) at 200 ppm (Diabrotica balteata): ≥ 80%; mortality at 50 ppm (Diabrotica balteata; concentration 50 ppm): 80% |
| CCS(=N)(=O)c1cc(C2(C#N)CC2)cnc1-c1nc2cc(C(F)(F)F)cnc2n1C (single isomer, unassigned) [Compound P16-B, 1-[5-(ethylsulfonimidoyl)-6-[3-methyl-6-(trifluoromethyl)imidazo[4,5-b]pyridin-2-yl]-3-pyridyl]cyclopropanecarbonitrile] | – | – | – | – | ≥ 80 | – | percent control (mortality, anti-feedant effect or growth inhibition) at 200 ppm (Spodoptera littoralis): ≥ 80%; Mortality (%) (Bemisia tabaci; concentration 12.5 ppm): 80%; Mortality (%) (Myzus persicae [2]; concentration 3.125 ppm): 100% |
| CCS(=N)(=O)c1cc(OC(C)(C)C#N)cnc1-c1nc2cc(C(F)(F)F)n(C3CC3)c(=O)c2n1C (single isomer, unassigned) [Compound P1-B, 2-[[6-[5-cyclopropyl-3-methyl-4-oxo-6-(trifluoromethyl)imidazo[4,5-c]pyridin-2-yl]-5-(ethylsulfonimidoyl)-3-pyridyl]oxy]-2-methyl-propanenitrile] | – | – | ≥ 80 | ≥ 80 | – | – | – |
| CCS(=N)(=O)c1cc(C2(C#N)CC2)cnc1-c1nc2cc(C(F)(F)F)ncc2n1C (single isomer, unassigned) [Compound P10-B, 1-[5-(ethylsulfonimidoyl)-6-[3-methyl-6-(trifluoromethyl)imidazo[4,5-c]pyridin-2-yl]-3-pyridyl]cyclopropanecarbonitrile] | – | – | – | – | ≥ 80 | – | Mortality (%) (Bemisia tabaci; concentration 12.5 ppm): 100%; Mortality (%) (Myzus persicae [2]; concentration 0.781 ppm): 80% |
| CCS(=N)(=O)c1cc(OC(C)(C)C#N)cnc1-c1cn2cnc(SC(F)(F)F)cc2n1 (single isomer, unassigned) [Compound P7-B, 2-[[5-(ethylsulfonimidoyl)-6-[7-(trifluoromethylsulfanyl)imidazo[1,2-c]pyrimidin-2-yl]-3-pyridyl]oxy]-2-methyl-propanenitrile] | – | – | ≥ 80 | ≥ 80 | – | – | Mortality (%) (Bemisia tabaci; concentration 50 ppm): 80% |
